Where a name gives a salt, the structure may show the parent alone.

Broadly, the EC50 is the concentration that produces a half-maximal response.

T1 sequence (P32245 whole entry, species assumed): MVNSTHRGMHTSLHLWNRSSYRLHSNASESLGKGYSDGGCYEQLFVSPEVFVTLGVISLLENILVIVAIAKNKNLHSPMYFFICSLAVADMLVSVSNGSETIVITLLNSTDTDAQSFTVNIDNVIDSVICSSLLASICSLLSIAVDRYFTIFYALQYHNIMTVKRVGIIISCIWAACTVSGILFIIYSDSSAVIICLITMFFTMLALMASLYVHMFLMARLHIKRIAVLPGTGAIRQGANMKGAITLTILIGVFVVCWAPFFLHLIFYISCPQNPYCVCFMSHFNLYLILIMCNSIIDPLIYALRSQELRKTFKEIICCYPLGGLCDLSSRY

The test addresses T1, MC4R (melanocortin-4 receptor) (Homo sapiens, UniProt P32245).
T1 construct: expressed in transfected cells
The test can be described thus: Luciferase assay (CRE-LUC, HEK MC4R-Luc cells). Type of test: cell-based. The following applies: 5 h incubation, concentration inducing 50% of each agonist's own maximum luminescence. On the procedure:
In order to measure the agonist ability against MC4R (melanocortin-4 receptor), a cell line that permanently expresses the luciferase gene (CRE-LUC) under the control of MC4R and CRE (cAMP response element) was established. After a mammalian cell expression vector (pCDNA3 (Neo)) (Invitrogen) containing the MC4R gene was prepared, human embryonic kidney (HEK) cell lines were transformed by using Lipofectamine 2000 (Invitrogen) together with a vector (pCRE-Luc)(Stratagen) expressing a luciferase gene (CRE-LUC) under the control of a cAMP response element (CRE). Transformed cell lines (HEK MC4R-Luc) were incubated in a 37° C. incubator in the presence of 5% CO2 for 24 hours by using Dulbecco's Modified Eagles Medium (DMEM) containing 10% Heat-Inactivated Fetal Bovine Serum (GIBCO/BRL). The cell lines were incubated for four days in the presence of Dulbecco's Modified Eagles Medium (DMEM) containing 10 ml of selection medium (10% Heat-Inactivated Fetal Bovine Serum (GIBCO/BRL), 100 unit/ml of penicillin (GIBCO/BRL), 100 unit/ml of streptomycin (GIBCO/BRL), 800 μg/ml of Geneticin (G418) (GIBCO/BRL). The process of removing cells killed by the selection medium by replacing the medium with 10 ml of a new selection medium was repeated three times, once every 4 days. Individual colonies formed by the finally selected and propagated clones were transferred under a microscope to a 24-well cell culture plate containing 1 ml of selection medium per well and incubated for 4 days. Forskolin (SIGMA) was treated to a final concentration of 10 μM, and then incubated for five hours in a 37° C. incubator in the presence of 5% CO2. Each well was treated with 50 μl of a Bright-Glo luciferase reagent (Promega) and left at room temperature for 15 minutes, and then the luminescence of each well was measured by using a luminometer (Victor).
HEK MC4R-Luc cells were added to each well of a 96-well luminometer cell culture plate (Costar) to a size of 2.5×10^4 cells in 100 μl of a culture medium and then incubated in a 37° C. incubator in the presence of 6% CO2 for 18 hours. […] Each well was treated with 50 μl of a Bright-Glo luciferase reagent (Promega) and left at room temperature for five minutes, and then the luminescence of each well was measured by using a luminometer (Victor). […] EC0.5 MSH is expressed as a concentration that induces 50% of the maximum amount of luminescence that can be induced by NDP-α-MSH, and EC50 is expressed as a concentration that induces 50% of the maximum amount of luminescence that can be induced by each agonist. The measurements were measured using statistical software (Prizm).
As for `CC(C)(C)C(=O)N([C@H]1C[C@@H](C(=O)N2CCOCC2)N(C(=O)[C@@H]2CN(C(C)(C)C)C[C@H]2c2ccc(F)cc2F)C1)[C@H]1CC[C@@H](C)CC1` [Example 1, N-((3S,5S)-1-((3S,4R)-1-(tert-butyl)-4-(2,4-difluorophenyl)pyrrolidine-3-carbonyl)-5-(morpholine-4-carbonyl)pyrrolidin-3-yl)-N-((1s,4R)-4-methylcyclohexyl)pivalamide hydrochloride], the half-maximal effective concentration (EC50) is 0.629 nM.

Turning to `CC(C)(C)C(=O)N([C@H]1C[C@@H](C(=O)N2CCOCC2)N(C(=O)[C@@H]2CN(C(C)(C)C)C[C@H]2c2ccc(Cl)cc2F)C1)[C@H]1CC[C@@H](C)CC1` [Example 4, N-((3S,5S)-1-((3S,4R)-1-(tert-butyl)-4-(4-chloro-2-fluorophenyl)pyrrolidine-3-carbonyl)-5-(morpholine-4-carbonyl)pyrrolidin-3-yl)-N-((1s,4R)-4-methylcyclohexyl)pivalamide hydrochloride], the 50% effective concentration (EC50) stood at 0.555 nM.

For `CC(C)C(=O)N([C@H]1C[C@@H](C(=O)N2CCOCC2)N(C(=O)[C@@H]2CN(C(C)(C)C)C[C@H]2c2ccc(F)cc2F)C1)[C@H]1CC[C@@H](C)CC1` [Example 2, N-((3S,5S)-1-((3S,4R)-1-(tert-butyl)-4-(2,4-difluorophenyl)pyrrolidine-3-carbonyl)-5-(morpholine-4-carbonyl)pyrrolidin-3-yl)-N-((1s,4R)-4-methylcyclohexyl)isobutyramide hydrochloride], the EC50 was determined as 2.47 nM.

For `CC(C)C(=O)N([C@H]1C[C@@H](C(=O)N2CCOCC2)N(C(=O)[C@@H]2CN(C(C)(C)C)C[C@H]2c2ccc(Cl)cc2F)C1)[C@H]1CC[C@@H](C)CC1` [Example 3, N-((3S,5S)-1-((3S,4R)-1-(tert-butyl)-4-(4-chloro-2-fluorophenyl)pyrrolidine-3-carbonyl)-5-(morpholine-4-carbonyl)pyrrolidin-3-yl)-N-((1s,4R)-4-methylcyclohexyl)isobutyramide hydrochloride], the EC50 was determined as 0.922 nM.

The molecule `CC1(C)CCC(N(C(=O)C(C)(C)C)[C@H]2C[C@@H](C(=O)N3CCOCC3)N(C(=O)[C@@H]3CN(C(C)(C)C)C[C@H]3c3ccc(Cl)cc3)C2)CC1` [Example 6, N-((3S,5S)-1-((3S,4R)-1-(tert-butyl)-4-(4-chlorophenyl)pyrrolidine-3-carbonyl)-5-(morpholine-4-carbonyl)pyrrolidin-3-yl)-N-(4,4-dimethylcyclohexyl)pivalamide hydrochloride] displayed a half-maximal effective concentration (EC50) of 4.04 nM.
